The values below come from ChEMBL document CHEMBL4052738, “Design and synthesis of 4-morpholino-6-(1,2,3,6-tetrahydropyridin-4-yl)-N-(3,4,5-trimethoxyphenyl)-1,3,5-triazin-2-amine analogues as tubulin polymerization inhibitors” (Bioorg Med Chem Lett, 2017).

Common to all, as to assay type: functional, cell-based
The subject of one test is HeLa. Kind of test: Antiproliferative activity against human HeLa cells after 48 hrs by sulforhodamine B assay. Background: In SRB staining, fixed cells bind dye roughly in proportion to their protein.
Another test concerns HepG2. Kind of test: Antiproliferative activity against human HepG2 cells after 48 hrs by sulforhodamine B assay. As to conditions: HepG2, 48 h.
Another test concerns A549. The test can be described thus: Antiproliferative activity against human A549 cells after 48 hrs by sulforhodamine B assay. To be noted: A549, 48 h.
The subject of the next test is MCF7. The test can be described thus: Antiproliferative activity against human MCF7 cells after 48 hrs by sulforhodamine B assay. To be noted: MCF7, 48 h.

The structures appear in SMILES notation.

On to `COc1cc(Nc2nc(C3=CCN(C(=O)CS)CC3)nc(N3CCOCC3)n2)cc(OC)c1OC`, for which the IC50 in the test on HeLa amounted to 32.9 µM; with HepG2 it was 32.9 µM; in the test on A549, 43.2 µM; with MCF7, 30.5 µM.

Consider `COc1cc(Nc2nc(C3=CCN(S(=O)(=O)c4ccc(C)cc4)CC3)nc(N3CCOCC3)n2)cc(OC)c1OC`, for which the 50% inhibitory concentration (IC50) in the test with HeLa is 45.7 µM; in the test on HepG2, 25 µM; with A549, 40.3 µM; in the test with MCF7, 42.1 µM.

Turning to `COc1cc(Nc2nc(C3=CCN(S(=O)(=O)c4ccc(Br)cc4)CC3)nc(N3CCOCC3)n2)cc(OC)c1OC`, the half-inhibitory concentration (IC50) is 30.6 µM in the test on HeLa, 40.4 µM in the test on HepG2, 43.6 µM in the test with A549 and 32.5 µM in the test on MCF7.

On to `COc1cc(Nc2nc(C3=CCN(C(=O)c4ccco4)CC3)nc(N3CCOCC3)n2)cc(OC)c1OC`, for which the IC50 is 45 µM with HeLa, 37.1 µM with HepG2, 51 µM with A549 and 32 µM in the test on MCF7.

Take `COc1ccc(C(=O)N2CC=C(c3nc(Nc4cc(OC)c(OC)c(OC)c4)nc(N4CCOCC4)n3)CC2)cc1`: the IC50 in the test with HeLa worked out at 43 µM; in the test on HepG2, 30.6 µM; in the test on A549, 33.3 µM; in the test on MCF7, 32.1 µM.

Take `COc1cc(Nc2nc(C3=CCN(C(=O)N4CCCCC4)CC3)nc(N3CCOCC3)n2)cc(OC)c1OC`: the half-maximal inhibitory concentration (IC50) in the test on HeLa is 34 µM; in the test with HepG2, 41.7 µM; in the test with A549 it was 30.8 µM; with MCF7 it was 40.5 µM.

On to `COc1cc(Nc2nc(C3=CCN(C(=O)Nc4ccc(F)c(F)c4)CC3)nc(N3CCOCC3)n2)cc(OC)c1OC`, for which the IC50 with HeLa came to 30.4 µM; in the test on HepG2, 34.5 µM; in the test with A549, 51 µM; in the test with MCF7 it was 30.6 µM.

On to `COc1cc(Nc2nc(C3=CCN(S(=O)(=O)c4ccc(C(F)(F)F)cc4)CC3)nc(N3CCOCC3)n2)cc(OC)c1OC`, for which the IC50 stood at 32.1 µM with HeLa, 27.2 µM in the test on HepG2, 29.9 µM with A549 and 40.5 µM with MCF7.

On to `COc1cc(Nc2nc(C3=CCN(C(=O)c4ccc(Br)cc4O)CC3)nc(N3CCOCC3)n2)cc(OC)c1OC`, for which the half-maximal inhibitory concentration (IC50) was found to be 43.9 µM in the test on HeLa, 38.9 µM with HepG2, 45.9 µM with A549 and 28 µM in the test with MCF7.

`COc1cc(Nc2nc(C3=CCN(C(C)=O)CC3)nc(N3CCOCC3)n2)cc(OC)c1OC`: the IC50 with HeLa came out at 45.7 µM; with HepG2, 50.6 µM; in the test on A549, 49 µM; with MCF7 it was 40.2 µM.

In the case of `COc1cc(Nc2nc(C3=CCN(S(=O)(=O)c4ccc([N+](=O)[O-])cc4)CC3)nc(N3CCOCC3)n2)cc(OC)c1OC`, the IC50 with HeLa was 32 µM; in the test on HepG2, 43.2 µM; in the test with A549, 34.6 µM; with MCF7, 40.3 µM.

Turning to `COc1cc(Nc2nc(C3=CCN(C(=O)Nc4ccc(F)cc4)CC3)nc(N3CCOCC3)n2)cc(OC)c1OC`, the half-inhibitory concentration (IC50) with HeLa came to 40.1 µM; with HepG2 it was 29.1 µM; with A549, 45.7 µM; with MCF7, 25.9 µM.

Regarding `CCN1CCN(C(=O)N2CC=C(c3nc(Nc4cc(OC)c(OC)c(OC)c4)nc(N4CCOCC4)n3)CC2)CC1`, the IC50 in the test on HeLa was found to be 39.5 µM; in the test on HepG2, 45.9 µM; in the test on A549, 43.2 µM; with MCF7, 30 µM.

As to `COc1cc(Nc2nc(C3=CCN(C(=O)Cc4c[nH]c5ccccc45)CC3)nc(N3CCOCC3)n2)cc(OC)c1OC`, the IC50 with HeLa came to 33.2 µM; with HepG2, 32 µM; in the test with A549, 43.9 µM; with MCF7 it was 29.8 µM.

Consider `COc1cc(Nc2nc(C3=CCN(S(=O)(=O)c4ccc(F)cc4)CC3)nc(N3CCOCC3)n2)cc(OC)c1OC`, for which the IC50 with HeLa is 50.6 µM; in the test with HepG2, 30 µM; in the test on A549, 45.6 µM; in the test with MCF7, 29.6 µM.

Regarding `COc1ccc(NC(=O)N2CC=C(c3nc(Nc4cc(OC)c(OC)c(OC)c4)nc(N4CCOCC4)n3)CC2)cc1`, the half-maximal inhibitory concentration (IC50) was 40.5 µM in the test on HeLa, 43.6 µM in the test with HepG2, 45.9 µM in the test on A549 and 26.4 µM in the test on MCF7.

Usually IC50 stands for the concentration that inhibits the measured activity by half. Low values mean greater potency in that assay, high ones weaker potency in that assay.
